Test results from patent US20100222439A1, “BEVERAGE CONTAINING A POLYMERIC POLYPHENOL” (CONOPCO, INC., D/B/A UNILEVER, priority 2009, published 2010).

Assay: Theaflavins feeding model (optical density)
Assay type: physicochemical
Protocol: A 3 mg/mL aqueous solution of theaflavins was prepared at 80 degrees Celsius. 0.625 mg/mL aqueous solutions of whey protein isolate and iota carrageenan were prepared and all three solutions combined to yield a solution with 1.5 mg/mL theaflavins, 0.156 mg/mL whey protein isolate and 0.156 mg/mL iota carrageenan. The following feeding programme was used with the 3 mg/mL aqueous solution of theaflavins being either at ambient temperature (reference “Procedure B”) or at 80 degrees Celsius (reference “Procedure A”) when combined with the ambient temperature 0.625 mg/mL aqueous solutions of whey protein isolate and iota carrageenan:
TF+WPI/IC: 25 mL whey protein isolate solution and 25 mL iota carrageenan solution are premixed and added to 50 mL theaflavins solution. TF+IC: 25 mL iota carrageenan solution is added to 50 mL of theaflavins solution and 25 mL of deionised water added. TF+WPI: 25 mL whey protein isolate solution is added to 50 mL of theaflavins solution and 25 mL of deionised water added. TFWPI+IC: 25 mL whey protein isolate solution is added to 50 mL theaflavins solution, and then 25 mL iota carrageenan solution is added after 10 minutes. […]
All the samples were stored at 4 degrees Celsius for 24 hours in order to equilibrate the tea creaming process before measurement of turbidity at 600 nm with a Safire2™ microplate reader (Tecan Group Ltd.).

Iota carrageenan
Effect on solubility of theaflavin: decreases the solubility of theaflavin
